The source of these data is US8022053B2, “Oral solid dosage forms containing a low dose of estradiol” (Bayer Schering Pharma Aktiengesellschaft, priority 2004, dated 2011).

Marks after values point to notes of the source that are not given here.

Series [1] is described as follows: In vitro dissolution of micronised estradiol and estradiol/polyvinylpyrrolidone powder mixtures (USP apparatus 2, paddle). Type of series: physicochemical. Particulars: 900 ml purified water, 37° C., 50 rpm, powder corresponding to 100 μg estradiol hemihydrate. The protocol: The dissolution characteristics of micronised estradiol and mixtures of micronised estradiol and polyvinylpyrrolidone, respectively, were investigated in an in vitro dissolution test system. The dissolution tester was a USP apparatus 2 (paddle system) (See <711> of USP 27) using 900 ml of purified water temperated at 37° C. as the dissolution media and a rotation speed of 50 rpm. The estradiol and the mixtures in powdery form were placed into the dissolution vessels in an amount corresponding to 100 μg of micronised estradiol hemihydrate.

Series [2] can be described thus: Bioavailability study, serum levels of estradiol after a single oral tablet. Type of series: in vivo, healthy postmenopausal women. The settings on record: fasted, for an extended period of time. As to the method:
A bioavailability study was conducted in order to determine the serum levels of estradiol after single administration of a tablet formulation identical to the one described in Example 2 containing 190 μg and 100 μg of micronised estradiol hemihydrate, respectively. The study design was open labelled, 3 periods, 3 treatments, cross-over design with a single administration of each treatment and two weeks' washout between each period. The study population were 24 healthy postmenopausal women, age 55-75. Fasted condition was held.
The full-drawn line refers to the mean serum levels of estradiol achieved by administering a single dose of 190 μg to the study population, and the dotted line refers to the mean serum levels of estradiol achieved by administering a single dose of 100 μg to the study population. The mean serum level of endogenous estradiol was 3-3.5 pg/ml.

For series [3] the following is noted: daily oral administration of 1 to 3 mg of estradiol; cited from earlier work.

Turning to `C[C@]12CC[C@@H]3c4ccc(O)cc4CC[C@H]3[C@@H]1CC[C@@H]2O` [micronised estradiol hemihydrate, estradiol hemihydrate], the “Amount of estradiol (μg) dissolved after 5 min” value in series [1] (5 min) was <3* μg. Further, the “Amount of estradiol (μg) dissolved after 10 min” value in series [1] (10 min) is <3* μg. The “Amount of estradiol (μg) dissolved after 20 min” value in series [1] (20 min) is on record as <3* μg. Further, in series [1] (30 min), the “Amount of estradiol (μg) dissolved after 30 min” value is reported as <3* μg. For the same molecule, the “Amount of estradiol (μg) dissolved after 60 min” value in series [1] (60 min) was below 3 µg. Further, the “Mean serum levels of estradiol” value in series [2] (Example 2 tablet with 100 μg (printed 100 pg)) and in series [2] (Example 2 tablet with 190 μg) was 5 to 20 pg/mL throughout.
Regarding `C[C@]12CC[C@@H]3c4ccc(O)cc4CC[C@H]3[C@@H]1CC[C@@H]2O` [estradiol], the Bioavailability in series [3] was 3-5%.
